Columns and labels:
[1] = target: interaction between PD-1 and PD-L1 (Homo sapiens (Human), UniProt Q9NZQ7); experiment: PD1-PDL1 HTRF binding activity test (Cisbio PD-1/PD-L1 binding assay kit)
Method: I. PD1-PDL1 HTRF Binding Activity Test
The effect of compounds of the examples of the present invention on the interaction between PD-1 and PD-L1 was determined by the PD-1/PD-L1 binding assay kit from Cisbio (#64ICP01PEG or 64ICP01PEH). The detailed experimental process was as follows: • 1. Pre-diluted compound solution, 4 μL of Tag1-PD-L1 and 4 μL of Tag2-PD1 were added to each well of a 384-well plate; • 2. After the mixture was incubated at room temperature for 15 min, 5 μL of anti-Tag1-Eu3+ antibody and 5 μL of anti-Tag2-XL665 antibody were then added; • 3. After incubated for 2 hrs at room temperature or overnight at 4° C., plates were read on Envision of Pelkin Elmer; and readings at 665 nm and 620 nm were recorded, and the ratio of the two readings was taken as a reading for each well; • 4. The reading of each well after compound treatment was compared with the reading of DMSO treated wells to obtain the percent inhibition of the compound; • 5. IC50 values of compounds and positive compounds of the examples of the present invention were determined by non-linear regression analysis of percent inhibition at different compound concentrations. II. Jurkat Reporter Gene Cellular Assay

[2] = Jurkat reporter gene cellular assay; format: cell-based; conditions: Homo sapiens; Jurkat/NF-κB-luc/PD1 + Raji-PD-L1 coculture, OKT3 1 μg/mL, 6 hrs, activation fold; read-out: Cell Activity EC50
How it was run: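 Jurkat cells stably expressing human PD-1 and NF-κB-luciferase co-cultured with PD-L1-expressing Raji cells (5×10^4 each/well) under OKT3 (1 μg/mL final) with compound. Raji cells preincubated 20 min; luminescence read 6 h after Jurkat addition. EC50 from non-linear regression of fold activation over DMSO.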

[3] = Pharmacokinetic assay in mice; format: in vivo; conditions: male, mouse; ICR mice, PO 10 mg/kg, plasma, original compound detected
Method: III. Pharmacokinetic Assay in Mice
The purpose of this study was to study the pharmacokinetic behaviors of some compounds of the present invention, and administration routes were: per oral administration (PO) to ICR mice at a dose of 10 mg/kg.
The compounds used in this test came from the compounds of the specific examples of the present invention.
ICR mice, male, N=3, with the original source of Shanghai Sippr-BK Laboratory Animal Co. Ltd.
2.3 Preparation and Administration of Drug
The compounds were weighed, and dissolved in a solvent of 0.5% SDS+0.5% CMCNa. The mixture solutions were mixed well by shaking and ultrasonic treatment to obtain colorless clear solutions. The solutions were orally administered to nine mice after an overnight fast. The dosage of administration was 10 mg/kg.
1) With about 90 μL/time point, blood was drawn from the submaxillary vein, and heparin sodium was added for anticoagulation. The blood samples were placed onto the ice, and were centrifuged (centrifugation conditions: 8000 r/min, 6 min, 2-8° C.) within 1 hr to obtain plasmas.
2) The time points for blood sampling were at 0 hr, 0.25 hr, 0.5 hr, 1 hr, 2 hrs, 4 hrs, 6 hrs, 8 hrs and 24 hrs after administration. The samples were stored in a refrigerator at −20° C.
3) 40 μL of plasma sample was added to 160 μL of cold acetonitrile containing an internal standard, and the mixture solution was vortexed for 3 min and centrifuged at 11,000 r/min for 5 min.
4) 100 μL of supernate was taken and added to 100 μL of water, and 5 μL of the sample was taken and analyzed by LC/MS/MS.
Only the original compounds were analyzed for the compounds from the examples of the present invention and the reference compound from Example 158 of WO2020011209A1; and both the original compounds and possible products of ester hydrolysis, namely Example 217, were analyzed for the reference compound from Example 216 of WO2020011209A1.

Chain of interaction between PD-1 and PD-L1 (Q9NZQ7 19-238): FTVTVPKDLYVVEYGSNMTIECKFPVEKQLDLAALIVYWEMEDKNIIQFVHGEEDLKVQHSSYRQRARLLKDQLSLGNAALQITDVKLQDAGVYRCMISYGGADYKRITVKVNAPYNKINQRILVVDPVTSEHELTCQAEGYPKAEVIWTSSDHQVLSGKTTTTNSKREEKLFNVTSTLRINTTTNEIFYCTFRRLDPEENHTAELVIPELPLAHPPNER

Row | SMILES | IC50 [1] | EC50 [2] | AUC(0-t) [3] | Cmax [3] | MRT [3] | Tmax [3] | half-life [3]
1 | Cc1c(/C=C(\F)c2nc3c(n2C)CCN(C(C)C)C3)cccc1-c1cccc(NC(=O)c2nc3c(n2C)CCN(CCC24CCC(C(=O)O)(CC2)C4)C3)c1C [Example 1, (Z)-4-(2-(2-((3′-(2-fluoro-2-(5-isopropyl-1-methyl-4,5,6,7-tetrahydro-1H-imidazo[4,5-c]pyridin-2-yl)vinyl)-2,2′-dimethyl-[1,1′-biphenyl]-3-yl)carbamoyl)-1-methyl-1,4,6,7-tetrahydro-5H-imidazo[4,5-c]pyridin-5-yl)ethyl)bicyclo[2.2.1]heptane-1-carboxylic acid] | 0.688 nM | 258 nM | 2490 ng·h/mL | 323 ng/mL | 8.3 h | 4 h | 5.2 h
2 | COc1cc(/C(F)=C/c2cccc(-c3cccc(NC(=O)c4nc5c(n4C)CCN(CCC46CCC(C(=O)O)(CC4)C6)C5)c3Cl)c2Cl)ncc1CN1CCC(C)(O)C1 (centres unmarked) [Example 49, (Z)-4-(2-(2-((2,2′-dichloro-3′-(2-fluoro-2-(5-((3-hydroxy-3-methylpyrrolidin-1-yl)methyl)-4-methoxypyridin-2-yl)vinyl)-[1,1′-biphenyl]-3-yl)carbamoyl)-1-methyl-1,4,6,7-tetrahydro-5H-imidazo[4,5-c]pyridin-5-yl)ethyl)bicyclo[2.2.1]heptane-1-carboxylic acid] | 0.232 nM | 46.2 nM | 15100 ng·h/mL | 1010 ng/mL | 7.4 h | 2 h | 4 h
3 | COc1cc(/C(F)=C/c2cccc(-c3cccc(NC(=O)c4nc5c(n4C)CCN(CCC46CCC(C(=O)O)(CC4)C6)C5)c3Cl)c2Cl)ncc1CN1CCCC1 [Example 58, (Z)-4-(2-(2-((2,2′-dichloro-3′-(2-fluoro-2-(4-methoxy-5-(pyrrolidin-1-ylmethyl)pyridin-2-yl)vinyl)-[1,1′-biphenyl]-3-yl)carbamoyl)-1-methyl-1,4,6,7-tetrahydro-5H-imidazo[4,5-c]pyridin-5-yl)ethyl) bicyclo[2.2.1]heptane-1-carboxvlic acid] | 0.193 nM | 44.1 nM | 1950 ng·h/mL | 173 ng/mL | 9.6 h | 6 h | 5 h
4 | COc1cc(/C(F)=C/c2cccc(-c3cccc(NC(=O)c4nc5c(n4C)CCN(CCC46CCC(C(=O)O)(CC4)C6)C5)c3Cl)c2Cl)ncc1CN1CC[C@@H](C(=O)O)C1 [Example 73, (R,Z)-1-((6-(2-(3′-(5-(2-(4-carboxybicyclo[2.2.1]heptan-1-yl)ethyl)-1-methyl-4,5,6,7-tetrahydro-1H-imidazo[4,5-c]pyridine-2-carboxamido)-2,2′-dichloro-[1,1′-biphenyl]-3-yl)-1-fluorovinyl)-4-methoxypyridin-3-yl)methyl)pyrrolidine-3-carboxylic acid] | 0.186 nM | 50.6 nM | 590 ng·h/mL | 442 ng/mL | 2 h | 0.5 h | 1.1 h
5 | COc1cc(/C(F)=C/c2cccc(-c3cccc(NC(=O)c4nc5c(n4C)CCN(CCC46CCC(C(=O)O)(CC4)C6)C5)c3Cl)c2Cl)ncc1CN1CC[C@@](C)(C(=O)O)C1 [Example 75, (R,Z)-1-((6-(2-(3′-(5-(2-(4-carboxybicyclo[2.2.1]heptan-1-yl)ethyl)-1-methyl-4,5,6,7-tetrahydro-1H-imidazo[4,5-c]pyridine-2-carboxamido)-2,2′-dichloro-[1,1′-biphenyl]-3-yl)-1-fluorovinyl)-4-methoxypyridin-3-yl)methyl)-3-methylpyrrolidine-3-carboxylic acid] | 0.185 nM | 54.4 nM | 2650 ng·h/mL | 806 ng/mL | 2.9 h | 1.8 h | 1.8 h
